For the experiment, the target named is T1, ligand binding domain of human ROR gamma (Homo sapiens, UniProt P51449).
T1 construct: NM_001001523; expressed in transfected cells; host or cells: HEK293T
T1 sequence (P51449 247-497 isoform P51449-2): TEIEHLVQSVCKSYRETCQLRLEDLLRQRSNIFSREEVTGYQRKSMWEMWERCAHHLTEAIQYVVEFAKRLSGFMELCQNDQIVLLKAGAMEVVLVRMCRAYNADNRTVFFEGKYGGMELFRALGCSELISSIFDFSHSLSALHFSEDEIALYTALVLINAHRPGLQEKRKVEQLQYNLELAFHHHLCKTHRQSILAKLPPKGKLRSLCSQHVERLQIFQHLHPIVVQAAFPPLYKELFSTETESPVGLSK
In words: ROR gamma reporter gene assay (GAL4-RORγ LBD luciferase, Dual-Glo). In kind it is cell-based. To be noted: HEK293T cells transfected with pM-ROR gamma, 8 concentrations 3.5 nM to 10.5 μM, 24 h incubation; read-out: result (pIC50, inhibition of RORγ transcriptional activity) (converted). The gist of the method:
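Transient GAL4-RORγ LBD (aa 247-497) / 5×UAS-luc / pRL-CMV cotransfection in HEK293T, charcoal-stripped 10% FBS. 8-pt dose, 3.5 nM–10.5 μM, 0.075% DMSO final. 24 h, 37 °C, 5% CO2. Dual-Glo firefly/renilla readout; pIC50 from curve fit.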

Take `O=C(CN(C(=O)c1cnn([C@H]2CC[C@H](C(=O)O)CC2)c1C(F)(F)F)C1CC2CCC1C2)c1c(Cl)cncc1Cl` (stereo partly drawn) [Example 215, trans-4-(4-(3-bicyclo[2.2.1]heptanyl-(2-(3,5-dichloropyridin-4-yl)-2-oxoethyl)carbamoyl)-5-(trifluoromethyl)pyrazol-1-yl)cyclohexane-1-carboxylic acid]: the IC50 is 32400 pM. To `O=C(CN(Cc1cc(F)cc(F)c1)C(=O)c1cnn([C@H]2CC[C@H](C(=O)O)CC2)c1C(F)(F)F)c1c(Cl)nsc1Cl` [Example 216, trans-4-(4-((2-(3,5-dichloro-1,2-thiazol-4-yl)-2-oxoethyl)-((3,5-difluorophenyl)methyl)carbamoyl)-5-(trifluoromethyl)pyrazol-1-yl)cyclohexane-1-carboxylic acid] belongs above 1.05e+06 pM; to `CC(C)(C)C#CCN(CC(=O)c1c(Cl)cccc1C(F)(F)F)C(=O)c1cnn([C@H]2CC[C@](C)(C(=O)O)CC2)c1C(F)(F)F` [Example 217, trans-4-(4-((2-(2-chloro-6-(trifluoromethyl)phenyl)-2-oxoethyl)-(4,4-dimethylpent-2-ynyl)carbamoyl)-5-(trifluoromethyl)pyrazol-1-yl)-1-methylcyclohexane-1-carboxylic acid], 219000 pM; to `CC(C)(C)C#CCN(CC(=O)c1c(Cl)cc(F)cc1Cl)C(=O)c1cnn([C@H]2CC[C@](C)(C(=O)O)CC2)c1C(F)(F)F` [Example 218, trans-4-(4-((2-(2,6-dichloro-4-fluorophenyl)-2-oxoethyl)-(4,4-dimethylpent-2-ynyl)carbamoyl)-5-(trifluoromethyl)pyrazol-1-yl)-1-methylcyclohexane-1-carboxylic acid], 339000 pM.

Consider `CC1(C)[C@@H]2C[C@H](N(CC(=O)c3c(Cl)cc(Cl)cc3Cl)C(=O)c3cnn([C@H]4CC[C@](C)(C(=O)O)CC4)c3C(F)(F)F)C[C@@H]21` [Example 219, trans-4-(4-(((1R,3r,5S)-6,6-dimethyl-3-bicyclo[3.1.0]hexanyl)-(2-oxo-2-(2,4,6-trichlorophenyl)ethyl)carbamoyl)-5-(trifluoromethyl)pyrazol-1-yl)-1-methylcyclohexane-1-carboxylic acid], for which the IC50 was 4900 pM. To `CC1(C)CCC(CN(CC(=O)c2c(Cl)cc(F)cc2Cl)C(=O)c2cnn([C@H]3CC[C@](C)(C(=O)O)CC3)c2C(F)(F)F)CC1` [Example 220, trans-4-(4-((2-(2,6-dichloro-4-fluorophenyl)-2-oxoethyl)-((4,4-dimethylcyclohexyl)methyl)carbamoyl)-5-(trifluoromethyl)pyrazol-1-yl)-1-methylcyclohexane-1-carboxylic acid] belongs 105000 pM; to `CC(C)(C)CN(CC(=O)c1c(Cl)cc(Cl)cc1Cl)C(=O)c1cnn([C@H]2CC[C@](C)(C(=O)O)CC2)c1C(F)(F)F` [Example 221, trans-4-(4-(2,2-dimethylpropyl-(2-oxo-2-(2,4,6-trichlorophenyl)ethyl)carbamoyl)-5-(trifluoromethyl)pyrazol-1-yl)-1-methylcyclohexane-1-carboxylic acid], 2950 pM. To `CC1(C)[C@@H]2C[C@H](N(CC(=O)c3c(Cl)cccc3C(F)(F)F)C(=O)c3cnn([C@H]4CC[C@](C)(C(=O)O)CC4)c3C(F)(F)F)C[C@@H]21` [Example 222, trans-4-(4-((2-(2-chloro-6-(trifluoromethyl)phenyl)-2-oxoethyl)-((1R,3r,5S)-6,6-dimethyl-3-bicyclo[3.1.0]hexanyl)carbamoyl)-5-(trifluoromethyl)pyrazol-1-yl)-1-methylcyclohexane-1-carboxylic acid] belongs 4170 pM. On to `CC1(C)CC[C@@H](N(CC(=O)c2c(Cl)cncc2Cl)C(=O)c2cnn([C@H]3CC[C@H](C(=O)O)CC3)c2C(F)(F)F)C1` [Example 223, trans-4-(4-((2-(3,5-dichloropyridin-4-yl)-2-oxoethyl)-((1R)-3,3-dimethylcyclopentyl)carbamoyl)-5-(trifluoromethyl)pyrazol-1-yl)cyclohexane-1-carboxylic acid], for which the IC50 is 50100 pM. To `C[C@]1(C(=O)O)CC[C@H](n2ncc(C(=O)N(CC(=O)c3c(Cl)cc(F)cc3Cl)CC3(F)CCCC3)c2C(F)(F)F)CC1` [Example 224, trans-4-(4-((2-(2,6-dichloro-4-fluorophenyl)-2-oxoethyl)-((1-fluorocyclopentyl)methyl)carbamoyl)-5-(trifluoromethyl)pyrazol-1-yl)-1-methylcyclohexane-1-carboxylic acid] belongs 2690 pM. For the molecule `C[C@]1(C(=O)O)CC[C@H](n2ncc(C(=O)N(CC(=O)c3c(Cl)cc(Cl)cc3Cl)CC3(F)CCCC3)c2C(F)(F)F)CC1` [Example 225, trans-4-(4-((1-fluorocyclopentyl)methyl-(2-oxo-2-(2,4,6-trichlorophenyl)ethyl)carbamoyl)-5-(trifluoromethyl)pyrazol-1-yl)-1-methylcyclohexane-1-carboxylic acid], the IC50 was 2950 pM. To `Cc1cc(Cl)c(C(=O)CN(CC23CCC(C)(CC2)O3)C(=O)c2cnn([C@H]3CC[C@](C)(C(=O)O)CC3)c2C(F)(F)F)c(Cl)c1` [Example 226, trans-4-(4-((2-(2,6-dichloro-4-methylphenyl)-2-oxoethyl)-((1-methyl-7-oxabicyclo[2.2.1]heptan-4-yl)methyl)carbamoyl)-5-(trifluoromethyl)pyrazol-1-yl)-1-methylcyclohexane-1-carboxylic acid] belongs 3390 pM; to `Cc1cc(Cl)c(C(=O)CN(C(=O)c2cnn([C@H]3CC[C@](C)(C(=O)O)CC3)c2C(F)(F)F)C2CCC(C)(C)CC2)c(Cl)c1` [Example 227, trans-4-(4-((2-(2,6-dichloro-4-methylphenyl)-2-oxoethyl)-(4,4-dimethylcyclohexyl)carbamoyl)-5-(trifluoromethyl)pyrazol-1-yl)-1-methylcyclohexane-1-carboxylic acid], 3980 pM. Next, `O=C(CN(Cc1ccc(F)cc1)C(=O)c1cnn([C@H]2CC[C@H](C(=O)O)CC2)c1CC(F)(F)F)c1c(Cl)cncc1Cl` [Example 228, trans-4-(4-((2-(3,5-dichloropyridin-4-yl)-2-oxoethyl)-((4-fluorophenyl)methyl)carbamoyl)-5-(2,2,2-trifluoroethyl)pyrazol-1-yl)cyclohexane-1-carboxylic acid]: 195000 pM; `CC1(C)CCC(N(CC(=O)c2c(Cl)cncc2Cl)C(=O)c2cnn([C@H]3CC[C@](C)(C(=O)O)CC3)c2C(F)(F)F)CC1` [Example 229, trans-4-(4-((2-(3,5-dichloropyridin-4-yl)-2-oxoethyl)-(4,4-dimethylcyclohexyl)carbamoyl)-5-(trifluoromethyl)pyrazol-1-yl)-1-methylcyclohexane-1-carboxylic acid]: 12900 pM; `CC1(C)CCC(N(CC(=O)c2c(Cl)cc(F)cc2Cl)C(=O)c2cnn(C34CCC(C(=O)O)(CC3)CC4)c2C(F)(F)F)CC1` [Example 230, 4-(4-((2-(2,6-dichloro-4-fluorophenyl)-2-oxoethyl)-(4,4-dimethylcyclohexyl)carbamoyl)-5-(trifluoromethyl)pyrazol-1-yl)bicyclo[2.2.2]octane-1-carboxylic acid]: 6610 pM.

Take `CC1(C)CCC(N(CC(=O)c2c(Cl)cc(Cl)cc2Cl)C(=O)c2cnn(C34CCC(C(=O)O)(CC3)CC4)c2C(F)(F)F)CC1` [Example 231, 4-(4-((4,4-dimethylcyclohexyl)-(2-oxo-2-(2,4,6-trichlorophenyl)ethyl)carbamoyl)-5-(trifluoromethyl)pyrazol-1-yl)bicyclo[2.2.2]octane-1-carboxylic acid]: the IC50 is 10700 pM.

For the molecule `COc1cccc(Cl)c1C(=O)CN(C(=O)c1cnn([C@H]2CC[C@](C)(C(=O)O)CC2)c1C(F)(F)F)[C@H]1C[C@@H]2[C@H](C1)C2(C)C` [Example 232, trans-4-(4-((2-(2-chloro-6-methoxyphenyl)-2-oxoethyl)-((1R,3r,5S)-6,6-dimethyl-3-bicyclo(3.1.0)hexanyl)carbamoyl)-5-(trifluoromethyl)pyrazol-1-yl)-1-methylcyclohexane-1-carboxylic acid], the IC50 was 17000 pM. To `CC(C)(C)CN(CC(=O)c1c(Cl)cncc1Cl)C(=O)c1cnn(C23CCC(C(=O)O)(CC2)CC3)c1C(F)(F)F` [Example 233, 4-(4-((2-(3,5-dichloropyridin-4-yl)-2-oxoethyl)-(2,2-dimethylpropyl)carbamoyl)-5-(trifluoromethyl)pyrazol-1-yl)bicyclo[2.2.2]octane-1-carboxylic acid] belongs 15800 pM. Turning to `C[C@]1(C(=O)O)CC[C@H](n2ncc(C(=O)N(CC(=O)c3c(Cl)cc(Cl)cc3Cl)CC3CC4(CC4)C3)c2C(F)(F)F)CC1` [Example 234, trans-4-(4-((2-oxo-2-(2,4,6-trichlorophenyl)ethyl)-(spiro[2.3]hexan-5-ylmethyl)carbamoyl)-5-(trifluoromethyl)pyrazol-1-yl)-1-methylcyclohexane-1-carboxylic acid], the IC50 was 10000 pM. Next, `C[C@]1(C(=O)O)CC[C@H](n2ncc(C(=O)N(CC(=O)c3c(Cl)cccc3C(F)(F)F)CC3CC4(CC4)C3)c2C(F)(F)F)CC1` [Example 235, trans-4-(4-((2-(2-chloro-6-(trifluoromethyl)phenyl)-2-oxoethyl)-(spiro[2.3]hexan-5-ylmethyl)carbamoyl)-5-(trifluoromethyl)pyrazol-1-yl)-1-methylcyclohexane-1-carboxylic acid]: 13200 pM.
